In patent publication US9061003B2, “Therapeutic or preventive agent for diabetes” (NITTA GELATIN INC., priority 2011, dated 2015):
Like-named read-outs stand apart in the source and are kept apart here. Square brackets hold non-standard residues; d marks the D form. Peptide text beside a SMILES is read from it. Hyp = O=C(O)[C@@H]1C[C@@H](O)CN1

What was measured:
[1] = system: Human-derived intestinal tract L cells (NCI-H716 cell); format: cell-based; conditions: for GLP-1 secretion accelerating percentage: peptides, 5 mM sample, 1 hour, NCI-H716 cells, Blank = 100%, n = 4; for GLP-1 secretion accelerating activity (in words): discussion of results
Protocol: Human-derived intestinal tract L cells (NCI-H716 cell: manufactured by ATCC) were inoculated at 5×10^5 cells/mL×200 μL (1×10^5 cells/well) in a RPIM medium containing 10% FBS (manufactured by ATCC) on a Pre-coated poly-L-lysin plate (96 wells plate) and cultured for 2 days. After confirming that the cells were adhered to the plate, the medium was replaced by a test medium (146 mM NaCl, 5 mM KCl, 1.5 mM CaCl2, 1 mM MgSO4, 20 mM HEPES, 5.6 mM glucose, 2 mg/mL BSA) and a sample was added at a final concentration of 5 mM. A culture supernatant after 1 hour was 30-fold diluted with PBS, and tested with GLP-1 ELISA kit (manufactured by Levis) according to the protocol.
Based on GLP-1 secretion in the case not added with the sample (Blank) as 100%, a GLP-1 secretion accelerating percentage in the fraction added with 5 mM sample was calculated.

[2] = target: T1, DPPIV enzyme; human recombinant (Homo sapiens, UniProt P27487); assay: DPPIV inhibitory activity (DPPIV Drug Discovery Kit-AK-499, H-Gly-Pro-AMC substrate); format: biochemical; conditions: for IC50 (concentration at which 50% of DPPIV activity was inhibited): peptides, human recombinant DPPIV; for DPPIV inhibitory activity (in words): discussion of results
T1 construct: purchased BIOMOL E434-9090 (kit AK-499)
T1 sequence (P27487 whole entry): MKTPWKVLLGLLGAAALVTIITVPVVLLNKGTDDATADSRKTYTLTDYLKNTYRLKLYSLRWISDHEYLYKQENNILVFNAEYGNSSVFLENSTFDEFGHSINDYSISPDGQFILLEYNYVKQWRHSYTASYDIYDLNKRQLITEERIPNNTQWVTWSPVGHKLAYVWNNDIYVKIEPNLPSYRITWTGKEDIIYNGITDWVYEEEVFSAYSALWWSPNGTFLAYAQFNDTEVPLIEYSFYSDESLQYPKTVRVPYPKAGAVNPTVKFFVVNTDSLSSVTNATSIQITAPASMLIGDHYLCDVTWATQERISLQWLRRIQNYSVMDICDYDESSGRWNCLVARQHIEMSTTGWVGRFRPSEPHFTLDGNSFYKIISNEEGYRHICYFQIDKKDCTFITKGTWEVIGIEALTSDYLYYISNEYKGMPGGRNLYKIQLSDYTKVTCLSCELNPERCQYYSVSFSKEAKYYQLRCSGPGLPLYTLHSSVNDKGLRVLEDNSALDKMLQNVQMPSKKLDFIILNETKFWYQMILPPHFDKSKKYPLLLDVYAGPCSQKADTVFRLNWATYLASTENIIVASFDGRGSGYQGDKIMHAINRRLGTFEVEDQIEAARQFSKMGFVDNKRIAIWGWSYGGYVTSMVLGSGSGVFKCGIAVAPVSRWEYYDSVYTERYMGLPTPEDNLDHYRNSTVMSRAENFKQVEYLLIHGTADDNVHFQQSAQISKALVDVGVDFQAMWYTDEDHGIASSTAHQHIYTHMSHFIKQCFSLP
Protocol: DPPIV inhibitory activity was determined by using a DPPIV inhibitory activity measuring kit “DPPIV Drug Discovery Kit-AK-499” (manufactured by BIOMOL). […] Inhibitory activity was evaluated by the concentration at which 50% of DPPIV activity was inhibited.

[3] = Intestinal tract absorptivity (intragastric administration, portal vein perfusate, LC/MS/MS); format: in vivo, Wistar rats; conditions: rat, po
Protocol: Male Wistar rats (170 g) were fasted overnight before subjected to the experiment. As a test sample, 215 nmol/10 mL of each of the peptides was used, and intragastrically administered. As a test method, heart and portal vein of each rat were attached with a cannula to make one-directional perfusion. […] To a perfusion sample solution (5.0 mL) collected from the portal vein was added 0.5 mL of 30% sulfosalicylic acid and stirred vigorously, and left overnight in a refrigerator. This sample was centrifuged at 3000 rpm for 10 minutes, to remove protein. For the supernatant of centrifugation, an amount of hydroxyproline in 0.5 mL was colorimetrically quantified, and an amount of free-type Hyp was obtained. […] After concentrating and drying the resultant in an evaporator, and removing the hydrochloric acid, the solid was dissolved in 5 mL of distilled water, and several drops of a saturated lithium hydroxide solution was added thereto to adjust pH at 5 to 7, and the volume was fixed at 10 mL. […] The value obtained by subtracting the amount of free-type Hyp before hydrolysis from the total Hyp amount after hydrolysis is an amount of peptide-form Hyp. From this amount of peptide-form Hyp, a quantitative value of absorption of each peptide into rat portal vein perfusate in the test sample was first determined. The colorimetric quantification of the amount of hydroxyproline was conducted by a […] and Shill method, and was concretely conducted in the following manner. That is, 2 mL of 2-propanol was added to 2 mL of a sample solution and stirred thoroughly. Then, 0.5 mL of a chloramine T liquid being an oxidizing agent was added to the mixture, and left still for accurately 4 minutes, and then cooled on ice. Then, 5 mL of a p-dimethylaminobenzaldehyde solution was added to the mixture and stirred thoroughly, and then heated in a boiling water bath for accurately 2 minutes. Then, the reaction was immediately cooled on ice, and left still for 1 hour, and then colorimetrically quantified at a wavelength of 575 nm. […] Further, the p-dimethylaminobenzaldehyde solution (Erich solution) was prepared by dissolving 20 g of p-dimethylaminobenzaldehyde powder in 22 mL of concentrated hydrochloric acid under heating in boiling water, and immediately cooling the same in ice water, and adding 122 mL of 2-propanol and dissolving it under stirring. Next, peptides collected in the rat portal vein perfusate, namely the aforementioned intestinally absorbed peptides were identified and quantified by the following HPLC analysis and mass spectrometry (LC/MS/MS). Analysis of the peptide in the perfusate was conducted by reverse-phase HPLC analysis. As a HPLC device, an LCSS-905 system manufactured by JASCO Corporation, consisting of a liquid feeding pump, a degasser, an automatic sampler, a column open, a UV spectrophotometer, a printer, and a system controller was used. As a reverse-phase column, Nova Pak C18 (3.9×150 mm) was used. […] As a HPLC device, U980HPLC (manufactured by JASCO Corporation) attached with an ODS(C18) column (Mightysil RP-18, 2×250 mm, manufactured by Kanto Chemical Co., Ltd.) was used. As a mobile phase solvent, a 0.2% formic acid-containing acetonitrile-water system was used, and the concentration of acetonitrile was increased from 0% to 40% over 40 minutes by a linear gradient, and it was washed with 100% acetonitrile for 10 minutes. […] MS analysis was conducted by a MS/MS system using a Quattro LC mass spectrophotometer (Micromass, Manchester, UK) according to a four-channel Multiple Reaction Monitoring method. To be more specific, the elute from HPLC was monitored by m/z being [M+H]^+ and by m/z of its fragment ion species. At this time, [M+H]^+ m/z was monitored using 302.2>189.4 for LOG; 286.1>189.3 for POG; 187.1>70.3 for PA; 261.1>243.4 for EO, 245.1>132.3 for LO; 245.2>132.1 for IO; 318.1>225.4 for EOG; 276.1>189.4 for SOG; 219.1>132.2 for SO; and 260.1>189.4 for AOG.

ob/ob mice = assay: Evaluation of sugar tolerance by glucose loading test; format: in vivo; conditions: 0.85 g/kg orally 30 minutes before oral glucose 2 g/kg
Protocol: Six-weeks old male ob/ob mice (Japan SLC) were allowed to acclimate by feeding with normal diet (MF, Oriental Yeast) for 7 days, and subjected to the experiment. After fasting the same mice overnight (16 hours), each collagen peptide (0.85 g/kg) or casein (0.85 g/kg, manufactured by DMV, Netherlands) was orally administered, and glucose (2 g/kg) was orally administered after 30 minutes, and the effect on the sugar tolerance was examined by a glucose loading test (2 g/kg). After 0, 15, 30, 60 and 120 minutes, the blood sugar level was measured by using a blood glucose measuring apparatus (Glutest ace R, SANWA KAGAKU KENKYUSHO CO., LTD.), and AUC0-120 min was calculated, and evaluated.

[4] = male, Wistar, in vivo, 215 nmol/10 mL
[5] = male Wistar rats, 215 nmol/10 mL intragastrically, portal vein perfusate, read-out: Amount of peptide identified after absorption

Compound	GLP-1 secretion accelerating percentage [1] [%]	IC50 (concentration at which 50% of DPPIV activity was inhibited) [2] [µM]	level at time molar [3, 4] [µM]	GLP-1 secretion accelerating activity (in words) [1]	DPPIV inhibitory activity (in words) [2]	level at time molar [3, 5] [µM]	AUC0-120 min × 1000 (blood sugar level) (ob/ob mice) [min mg/dL]
C[C@H](N)C(=O)N1C[C@H](O)C[C@H]1C(=O)O [AO, Ala-Hyp] (H-Ala-[Hyp]-OH; N-terminus and C-terminus assumed)	262 ± 71	>10000	71 ± 0.9				
C[C@H](N)C(=O)N1C[C@H](O)C[C@H]1C(=O)NCC(=O)O [AOG, Ala-Hyp-Gly] (H-Ala-[Hyp]-Gly-OH; N-terminus and C-terminus assumed)	120 ± 5	6000		have GLP-1 secretion accelerating activity	high DPPIV inhibitory activity	66.7 ± 1.3	
N[C@@H](CCC(=O)O)C(=O)N1C[C@H](O)C[C@H]1C(=O)O [EO, Glu-Hyp] (H-Glu-[Hyp]-OH; N-terminus and C-terminus assumed)	148 ± 66	1500	156 ± 1.3	have GLP-1 secretion accelerating activity	high DPPIV inhibitory activity		
N[C@@H](CCC(=O)O)C(=O)N1C[C@H](O)C[C@H]1C(=O)NCC(=O)O [EOG, Glu-Hyp-Gly] (H-Glu-[Hyp]-Gly-OH; N-terminus and C-terminus assumed)	307 ± 84	2900	110 ± 0.9	have GLP-1 secretion accelerating activity	high DPPIV inhibitory activity		
NCC(=O)N1CCC[C@H]1C(=O)N1C[C@H](O)C[C@H]1C(=O)O [GPO, Gly-Pro-Hyp] (H-Gly-Pro-[Hyp]-OH)	278 ± 60	>10000				2.2	
CC[C@H](C)[C@H](N)C(=O)N1C[C@H](O)C[C@H]1C(=O)O [IO, Ile-Hyp] (H-Ile-[Hyp]-OH; N-terminus and C-terminus assumed)		2900	163 ± 1.9		high DPPIV inhibitory activity		
CC(C)C[C@H](N)C(=O)N1C[C@H](O)C[C@H]1C(=O)O [LO, Leu-Hyp] (H-Leu-[Hyp]-OH; N-terminus and C-terminus assumed)		1700	167.7 ± 0.9		high DPPIV inhibitory activity		
CC(C)C[C@H](N)C(=O)N1C[C@H](O)C[C@H]1C(=O)NCC(=O)O [LOG, Leu-Hyp-Gly] (H-Leu-[Hyp]-Gly-OH; N-terminus and C-terminus assumed)	326 ± 17	280		have GLP-1 secretion accelerating activity	high DPPIV inhibitory activity	116.1 ± 1	
C[C@H](NC(=O)[C@@H]1CCCN1)C(=O)O [PA, Pro-Ala] (H-Pro-Ala-OH; N-terminus and C-terminus assumed)	133 ± 85	1000	152.6 ± 1.1	have GLP-1 secretion accelerating activity	high DPPIV inhibitory activity		
C[C@H](NC(=O)[C@@H]1CCCN1)C(=O)NCC(=O)O [PAG, reference compound] (H-Pro-Ala-Gly-OH; N-terminus and C-terminus assumed)		>10000	105 ± 1.3				
O=C(O)CNC(=O)[C@@H]1C[C@@H](O)CN1C(=O)[C@@H]1CCCN1 [POG, Pro-Hyp-Gly] (H-Pro-[Hyp]-Gly-OH; N-terminus and C-terminus assumed)		600			high DPPIV inhibitory activity	129 ± 1	
N[C@@H](CO)C(=O)N1C[C@H](O)C[C@H]1C(=O)O [SO, Ser-Hyp] (H-Ser-[Hyp]-OH; N-terminus and C-terminus assumed)	161 ± 37	3600	116.1 ± 0.9	have GLP-1 secretion accelerating activity	high DPPIV inhibitory activity		
N[C@@H](CO)C(=O)N1C[C@H](O)C[C@H]1C(=O)NCC(=O)O [SOG, Ser-Hyp-Gly] (H-Ser-[Hyp]-Gly-OH; N-terminus and C-terminus assumed)		3000	103.2 ± 1		high DPPIV inhibitory activity		
Casein							40.0 ± 2.0
Hyp-Gly [OG]	152 ± 22			have GLP-1 secretion accelerating activity	have DPPIV inhibitory activity		
Pro-Gly [PG]	168 ± 15			have GLP-1 secretion accelerating activity	have DPPIV inhibitory activity		
Pro-Hyp [PO]	154 ± 44			have GLP-1 secretion accelerating activity	have DPPIV inhibitory activity		
Pro-Pro [PP]	167 ± 53			have GLP-1 secretion accelerating activity	have DPPIV inhibitory activity		
